Some test systems named below: RPMI-8226 leukemia; EKVX NSCLC; HS 578T breast; SK-MEL-2 melanoma; OVCAR-5 ovarian; SNB-75 CNS; HOP-92 NSCLC; M14 melanoma.
Assay in all cases: inhibition of tumour cell growth, NCI panel, 48 h

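Tested at 5 concentrations; 48 h exposure; 96-well plates; endpoints linearly interpolated, else capped at highest concentration. The concentration for 50% growth inhibition is given as GI50. TGI: concentration producing complete growth inhibition.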

Regarding `COc1cc2c3c(n(CCCN4CCN(C)CC4)c(=O)c2cc1OC)-c1cc2c(cc1C3=O)OCO2`, the GI50 in the test with RPMI-8226 leukemia is 2.39 µM; in the test on EKVX NSCLC, 17.7 µM; with HS 578T breast it was 13.9 µM; in the test on SK-MEL-2 melanoma, greater than 100 µM; in the test with OVCAR-5 ovarian, 17.6 µM; in the test with SNB-75 CNS, 16 µM. In addition, the GI50 in the test on HOP-92 NSCLC is 19.8 µM. For the same compound, the TGI was 14.1 µM in the test with RPMI-8226 leukemia; 41.1 µM in the test with EKVX NSCLC; 73 µM in the test on HS 578T breast; greater than 100 µM in the test on SK-MEL-2 melanoma; 31.4 µM in the test with OVCAR-5 ovarian; 36 µM in the test with SNB-75 CNS. The same compound came in with a TGI in the test with HOP-92 NSCLC of 46.9 µM.
`Cc1cc(S(=O)(=O)Nc2nc3ccsc3c(=O)n2Cc2ccco2)c(S)cc1Cl`: the GI50 is 59 µM in the test with RPMI-8226 leukemia; greater than 100 µM in the test with EKVX NSCLC; 81 µM in the test with HS 578T breast; greater than 100 µM in the test with OVCAR-5 ovarian; greater than 100 µM in the test with M14 melanoma; greater than 100 µM with SNB-75 CNS. Besides, in the test on HOP-92 NSCLC, the GI50 was greater than 100 µM. In addition, the TGI in the test with RPMI-8226 leukemia, in the test with EKVX NSCLC, in the test on HS 578T breast, in the test on OVCAR-5 ovarian, in the test with M14 melanoma and in the test on SNB-75 CNS was greater than 100 µM in each case. The same compound gave a TGI in the test with HOP-92 NSCLC greater than 100 µM.
`N#C/C(=C/C=C(\Cl)c1ccc(Cl)cc1)C(N)=O`: the GI50 was 2.14 µM in the test with RPMI-8226 leukemia; 7.74 µM in the test with EKVX NSCLC; 3.07 µM with HS 578T breast; greater than 52.5 µM in the test on SK-MEL-2 melanoma; 4.51 µM in the test on OVCAR-5 ovarian; 1.94 µM with M14 melanoma. For the same compound, the GI50 in the test with HOP-92 NSCLC is 2.47 µM. The TGI in the test on RPMI-8226 leukemia is greater than 100 µM; in the test with EKVX NSCLC, 17.4 µM; with HS 578T breast, 9.91 µM; with SK-MEL-2 melanoma, greater than 93.6 µM; with OVCAR-5 ovarian, 17.7 µM; with M14 melanoma, 9.84 µM. The TGI in the test with HOP-92 NSCLC turned out to be 9.72 µM.
With `N#Cc1c[nH]n2ccnc12`, the TGI in the test on EKVX NSCLC, in the test on HS 578T breast, with SK-MEL-2 melanoma, with OVCAR-5 ovarian, in the test with M14 melanoma and with SNB-75 CNS was greater than 100 µM each time.
On to `O=C1/C(=C/c2ccccc2)SC(=Nc2ccccc2)N1Nc1ccccc1`, for which the GI50 with RPMI-8226 leukemia was 3.94 µM; in the test on EKVX NSCLC it was 7.28 µM; in the test with HS 578T breast, 29 µM; in the test with SK-MEL-2 melanoma, 14.9 µM; in the test with OVCAR-5 ovarian, 34.1 µM; with M14 melanoma, 12.3 µM. Besides, the GI50 in the test with HOP-92 NSCLC is 3.6 µM. Further, the TGI in the test on RPMI-8226 leukemia is 27.4 µM; in the test with EKVX NSCLC, greater than 100 µM; in the test with HS 578T breast it was greater than 100 µM; with SK-MEL-2 melanoma it was 43.7 µM; in the test on OVCAR-5 ovarian, greater than 100 µM; in the test with M14 melanoma, 42.8 µM. In the test on HOP-92 NSCLC, the TGI turned out to be 42.2 µM.
Regarding `COc1ccc(/C=C(/C(=O)N2CCCC2)c2cc(OC)c(OC)c(OC)c2)cc1N`, the GI50 is 4.05 µM in the test with RPMI-8226 leukemia; 4.63 µM in the test with EKVX NSCLC; 2.41 µM in the test on HS 578T breast; 4.72 µM with SK-MEL-2 melanoma; 7.63 µM in the test on OVCAR-5 ovarian; 2.18 µM in the test on SNB-75 CNS. Moreover, the GI50 with HOP-92 NSCLC was 9.92 µM. Further, the TGI in the test on RPMI-8226 leukemia, in the test with EKVX NSCLC, with HS 578T breast, in the test with SK-MEL-2 melanoma, in the test with OVCAR-5 ovarian and in the test on SNB-75 CNS was greater than 100 µM throughout. This compound also had a TGI in the test with HOP-92 NSCLC greater than 100 µM.
Regarding `COc1ccc(C2NCCc3c2[nH]c2ccccc32)cc1CN1CCN(c2ccc(F)cc2)CC1` (configuration not stated), the GI50 in the test with RPMI-8226 leukemia was 2.47 µM; with HS 578T breast it was 1.6 µM; with SK-MEL-2 melanoma, 2.14 µM; in the test with OVCAR-5 ovarian, 2.13 µM; with SNB-75 CNS, 1.25 µM; in the test with HOP-92 NSCLC, 2 µM. The TGI was found to be 5.65 µM with RPMI-8226 leukemia; 3.75 µM in the test with HS 578T breast; 3.93 µM with SK-MEL-2 melanoma; 5.2 µM with OVCAR-5 ovarian; 2.52 µM in the test on SNB-75 CNS; 5.91 µM with HOP-92 NSCLC.
For the compound `Cc1ccc(S(=O)(=O)Oc2ccc3c4c(c(=O)oc3c2)CCCCC4)cc1`, the GI50 in the test with RPMI-8226 leukemia is 4.55 µM; with HS 578T breast, 96.2 µM; in the test on SK-MEL-2 melanoma, greater than 100 µM; in the test on OVCAR-5 ovarian it was greater than 100 µM; in the test on M14 melanoma, greater than 100 µM; in the test on SNB-75 CNS, 71.4 µM. Also, the GI50 with HOP-92 NSCLC is 9.26 µM. The TGI with RPMI-8226 leukemia, in the test with HS 578T breast, in the test on SK-MEL-2 melanoma, in the test with OVCAR-5 ovarian, in the test with M14 melanoma and in the test on SNB-75 CNS was greater than 100 µM throughout. The TGI with HOP-92 NSCLC is greater than 100 µM.
For `N#C/C(=C\c1ccc(Br)cc1)n1nnc2cccc(F)c21`, the GI50 with RPMI-8226 leukemia was 0.416 µM; in the test with EKVX NSCLC, 1.62 µM; in the test on HS 578T breast, 2.5 µM; with SK-MEL-2 melanoma, 1.96 µM; in the test on OVCAR-5 ovarian it was 1.77 µM; with SNB-75 CNS, 1.41 µM. Moreover, the TGI with RPMI-8226 leukemia is 4.25 µM; in the test with EKVX NSCLC, 3.02 µM; with HS 578T breast, 8.14 µM; with SK-MEL-2 melanoma, 5.14 µM; in the test on OVCAR-5 ovarian, 3.48 µM; in the test with SNB-75 CNS, 2.87 µM.
`Nc1nc2c(c3ncccc13)C(c1cccc(Cl)c1)Cc1ncccc1-2` (configuration not stated): the GI50 with RPMI-8226 leukemia is 4.19 µM; with EKVX NSCLC it was 4.9 µM; with HS 578T breast, 3.83 µM; in the test with SK-MEL-2 melanoma, 1.84 µM; in the test with OVCAR-5 ovarian it was 6.42 µM; in the test with M14 melanoma it was 1.23 µM. Besides, the GI50 in the test on SNB-75 CNS was 1.12 µM. Also, the TGI with RPMI-8226 leukemia was 41.1 µM; in the test on EKVX NSCLC, greater than 100 µM; in the test with HS 578T breast, 34.4 µM; in the test on SK-MEL-2 melanoma it was 15.4 µM; in the test on OVCAR-5 ovarian, greater than 100 µM; with M14 melanoma, 12.7 µM. For the same compound, in the test with SNB-75 CNS, the TGI came to 8.17 µM.
Consider `COc1cc(NN=C(c2ccc(O)cc2)c2ccc(O)cc2)c([N+](=O)[O-])cc1[N+](=O)[O-]`, for which the GI50 in the test on RPMI-8226 leukemia is 1.5 µM; with EKVX NSCLC, 14.4 µM; in the test on SK-MEL-2 melanoma, 14.2 µM; in the test on OVCAR-5 ovarian, 18.8 µM; in the test with M14 melanoma it was 11.4 µM; with SNB-75 CNS, 14.7 µM. Further, the GI50 in the test with HOP-92 NSCLC was 12.1 µM. Also, the TGI in the test on RPMI-8226 leukemia was greater than 100 µM; in the test with EKVX NSCLC it was 28.3 µM; in the test on SK-MEL-2 melanoma, 30.5 µM; in the test with OVCAR-5 ovarian it was 40.1 µM; with M14 melanoma, 24.7 µM; in the test with SNB-75 CNS, 29.6 µM. The compound further returned a TGI in the test with HOP-92 NSCLC of 31.6 µM.

The values above are taken from PubChem BioAssay (NCI).
